Assay results taken from patent US9302999B2, “Substituted triazoles as herbicides” (E. I. DU PONT DE NEMOURS AND COMPANY, priority 2012, dated 2016).

Experiments:
Assay type in all cases: in vivo
[1] = system: goosegrass (Eleusine indica); assay: Test C pre-/postemergence: goosegrass
Summary of the method: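 Preemergence on seeds in loam/sand, postemergence on 2–18 cm (1–4-leaf) plants in peat-based medium; compounds in non-phytotoxic solvent with surfactant. After 13–15 days in greenhouse, visual rating versus controls, 0 (no effect) to 100 (complete control).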

[2] = system: canarygrass (Phalaris minor); assay: Test D pre-/postemergence: canarygrass
Summary of the method: (§1)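 Pre- and postemergence herbicide screen. Soil for pre: silt loam; post medium: peat moss, vermiculite, wetting agent, starter nutrients. Plant stage at post: 1- to 4-leaf. Readout: visual % control, 14–21 days.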

[3] = system: bromegrass, downy (downy bromegrass, Bromus tectorum); assay: Test D pre-/postemergence: bromegrass, downy
Summary of the method: as §1

[4] = system: field violet (Viola arvensis); assay: Test D pre-/postemergence: field violet; conditions: Postemergence
Summary of the method: as §1

[5] = system: speedwell (bird's-eye speedwell, Veronica persica); assay: Test D pre-/postemergence: speedwell
Summary of the method: as §1

[6] = system: mustard, wild (wild mustard, Sinapis arvensis); assay: Test D pre-/postemergence: mustard, wild
Summary of the method: as §1

[7] = system: wheat, winter (winter wheat, Triticum aestivum); assay: Test D pre-/postemergence: wheat, winter
Summary of the method: as §1

[8] = Postemergence, 31 g ai/ha, scale 0 to 100 (0 no effect, 100 complete control)
[9] = Postemergence, 62 g ai/ha, scale 0 to 100 (0 no effect, 100 complete control)
[10] = Postemergence, 125 g ai/ha, scale 0 to 100, 0 no effect, 100 complete control
[11] = Postemergence, 250 g ai/ha, scale 0 to 100 (0 no effect, 100 complete control)
[12] = Postemergence, 16 g ai/ha, scale 0 to 100
[13] = Preemergence, 16 g ai/ha, scale 0 to 100 (0 no effect, 100 complete control)
[14] = Preemergence, 31 g ai/ha, scale 0 to 100 (0 no effect, 100 complete control)
[15] = Preemergence, 62 g ai/ha, scale 0 to 100
[16] = Preemergence, 125 g ai/ha, scale 0 to 100
[17] = Preemergence, 250 g ai/ha, scale 0 to 100

CCOc1nn(-c2ccc(F)cc2)nc1Cc1ccnc(C(F)F)c1 [Compound 195]
25: Plant response rating, Canarygrass [2, 14] | Plant response rating, Bromegrass, Downy [3, 15] | Plant response rating: Wheat, Winter [7, 10]
0: Plant response rating, Canarygrass [2, 13] | Plant response rating, Bromegrass, Downy [3, 13] | Plant response rating, Bromegrass, Downy [3, 14] | Plant response rating, Mustard, Wild [6, 13] | Plant response rating, Wheat, Winter [7, 13] | Plant response rating, Wheat, Winter [7, 14] | Plant response rating, Wheat, Winter [7, 15] | Plant response rating, Wheat, Winter [7, 16]
85: Plant response rating: Field Violet ([4]; 125 g ai/ha, scale 0 to 100, 0 no effect, 100 complete control)
30: Plant response rating, Speedwell [5, 13]
80: Plant response rating, Goosegrass [1, 11] | Plant response rating, Canarygrass [2, 16] | Plant response rating: Mustard, Wild [6, 8] | Plant response rating: Mustard, Wild [6, 9]
70: Plant response rating: Field Violet ([4]; 31 g ai/ha, scale 0 to 100 (0 no effect, 100 complete control)) | Plant response rating, Field Violet ([4]; 16 g ai/ha, scale 0 to 100)
50: Plant response rating, Goosegrass [1, 8] | Plant response rating, Goosegrass [1, 9] | Plant response rating, Bromegrass, Downy [3, 17]
5: Plant response rating, Bromegrass, Downy [3, 12] | Plant response rating, Wheat, Winter [7, 12]
98: Plant response rating, Goosegrass ([1]; Preemergence, 31 g ai/ha, scale 0 (no effect) to 100 (complete control))
75: Plant response rating: Field Violet ([4]; 62 g ai/ha, scale 0 to 100 (0 no effect, 100 complete control))
35: Plant response rating: Bromegrass, Downy [3, 10] | Plant response rating, Bromegrass, Downy [3, 16]
15: Plant response rating: Bromegrass, Downy [3, 8]
95: Plant response rating, Canarygrass [2, 17] | Plant response rating: Field Violet ([4]; 250 g ai/ha, scale 0 to 100 (0 no effect, 100 complete control)) | Plant response rating: Mustard, Wild [6, 10]
100: Plant response rating, Goosegrass ([1]; Preemergence, 62 g ai/ha, scale of 0 to 100, 0 is no effect, 100 is complete control) | Plant response rating, Goosegrass ([1]; Preemergence, 125 g ai/ha, scale 0 to 100, 0 no effect, 100 complete control) | Plant response rating, Goosegrass ([1]; Preemergence, 250 g ai/ha, scale 0 to 100, 0 no effect, 100 complete control) | Plant response rating: Speedwell [5, 8] | Plant response rating: Speedwell [5, 9] | Plant response rating: Speedwell [5, 10] | Plant response rating: Speedwell [5, 11] | Plant response rating, Speedwell [5, 12] | Plant response rating, Speedwell [5, 14] | Plant response rating, Speedwell [5, 15] | Plant response rating, Speedwell [5, 16] | Plant response rating, Speedwell [5, 17] | Plant response rating: Mustard, Wild [6, 11] | Plant response rating, Mustard, Wild [6, 16] | Plant response rating, Mustard, Wild [6, 17]
55: Plant response rating: Canarygrass [2, 11]
40: Plant response rating: Canarygrass [2, 10] | Plant response rating, Canarygrass [2, 15] | Plant response rating: Bromegrass, Downy [3, 11] | Plant response rating, Mustard, Wild [6, 15] | Plant response rating: Wheat, Winter [7, 11]
60: Plant response rating, Goosegrass [1, 10] | Plant response rating, Mustard, Wild [6, 12]
10: Plant response rating: Canarygrass [2, 8] | Plant response rating, Canarygrass [2, 12] | Plant response rating, Mustard, Wild [6, 14] | Plant response rating: Wheat, Winter [7, 8] | Plant response rating: Wheat, Winter [7, 9] | Plant response rating, Wheat, Winter [7, 17]
20: Plant response rating: Canarygrass [2, 9] | Plant response rating: Bromegrass, Downy [3, 9]
